According to patent publication US20260070922A1, “PYRAZOLE AND IMIDAZOLE DERIVATIVES AS DUAL OREXIN AND KAPPA-OPIOID RECEPTORS MODULATORS COMPOSITION, METHODS FOR TREATING NEUROLOGICAL AND PSYCHIATRIC DISORDERS” (HAGER BIOSCIENCES, LLC, priority 2022, published 2026):

Tests used:
[1] = biological target: T1, Orexin type 1 (OX1R) receptor (Homo sapiens, UniProt O43613); assay: In vitro orexin antagonism assay: intracellular calcium measurement (FLIPR), orexin-A 3 nM as agonist; format: cell-based; details: for IC50: first value of IC50/Kb cell; for inhibition at 1 µM: read-out: OX1R, % Inh. @ 1 uM; for Kb: second value of IC50/Kb cell
T1 construct: expressed in transfected cells; host or cells: CHO cells (G418 selection)
T1 sequence (O43613 1-425): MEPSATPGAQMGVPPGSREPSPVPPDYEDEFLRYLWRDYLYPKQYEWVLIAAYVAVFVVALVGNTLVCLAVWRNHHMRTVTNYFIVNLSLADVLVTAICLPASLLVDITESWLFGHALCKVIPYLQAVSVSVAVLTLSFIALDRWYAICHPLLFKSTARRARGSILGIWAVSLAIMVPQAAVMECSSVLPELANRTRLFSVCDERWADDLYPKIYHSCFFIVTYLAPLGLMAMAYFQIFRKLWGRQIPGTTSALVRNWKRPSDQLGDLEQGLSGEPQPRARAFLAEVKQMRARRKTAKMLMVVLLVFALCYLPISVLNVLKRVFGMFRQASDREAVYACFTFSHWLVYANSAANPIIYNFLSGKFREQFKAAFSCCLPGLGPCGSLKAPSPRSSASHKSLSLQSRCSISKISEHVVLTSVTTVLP
Method in brief: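 CHO cells expressing the human orexin receptor were loaded with 3 μM fluo-4 AM plus 5 mM probenecid, then exposed to antagonist for 120 min before 3 nM orexin-A (final) was added on a FLIPR.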

[2] = biological target: T2, human k-opioid receptor (kOR) (Homo sapiens, UniProt P41145); assay: Human k-opioid (KOP) receptor (agonist radioligand [3H]U-69593) binding assay, transfected RBL cell membranes; details: second value of IC50/Ki cell
T2 construct: expressed in transfected cells; host or cells: RBL cells (membrane homogenates)
T2 sequence (P41145 whole entry): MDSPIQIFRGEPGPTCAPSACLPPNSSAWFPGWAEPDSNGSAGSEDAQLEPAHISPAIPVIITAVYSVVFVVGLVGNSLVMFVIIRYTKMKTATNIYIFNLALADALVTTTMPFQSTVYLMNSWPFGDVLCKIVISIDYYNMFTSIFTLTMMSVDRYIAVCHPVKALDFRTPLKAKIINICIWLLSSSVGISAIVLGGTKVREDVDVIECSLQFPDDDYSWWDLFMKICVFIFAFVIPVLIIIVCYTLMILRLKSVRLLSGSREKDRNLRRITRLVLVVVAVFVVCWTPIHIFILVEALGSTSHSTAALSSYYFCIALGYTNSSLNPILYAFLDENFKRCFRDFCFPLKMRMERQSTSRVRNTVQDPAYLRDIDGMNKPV

[3] = biological target: T2, human k-opioid receptor (kOR); assay: as above; details: for IC50: first value of IC50/Ki cell; for inhibition at 1 µM: read-out: KOR % Inh. @ 1 uM
Method in brief: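 Membranes from transfected RBL cells (~80 μg protein) incubated 60 min at 22° C with 0.5 nM [3H]U-69593 in 50 mM Tris-HCl pH 7.4, 10 mM MgCl2, 1 mM EDTA. Nonspecific binding defined with 10 μM naloxone; filtration and scintillation counting. Values are percent inhibition of specific radioligand binding.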

[4] = biological target: T3, human orexin-2 receptor (OX2R) (Homo sapiens, UniProt O43614); assay: In vitro orexin antagonism assay: intracellular calcium measurement (FLIPR), orexin-A 3 nM as agonist; format: cell-based; details: for IC50: first value of IC50/Kb cell; for inhibition at 1 µM: read-out: OX2R, % Inh. @ 1 uM; for Kb: second value of IC50/Kb cell
T3 construct: expressed in transfected cells; host or cells: CHO cells (G418 selection)
T3 sequence (O43614 1-444): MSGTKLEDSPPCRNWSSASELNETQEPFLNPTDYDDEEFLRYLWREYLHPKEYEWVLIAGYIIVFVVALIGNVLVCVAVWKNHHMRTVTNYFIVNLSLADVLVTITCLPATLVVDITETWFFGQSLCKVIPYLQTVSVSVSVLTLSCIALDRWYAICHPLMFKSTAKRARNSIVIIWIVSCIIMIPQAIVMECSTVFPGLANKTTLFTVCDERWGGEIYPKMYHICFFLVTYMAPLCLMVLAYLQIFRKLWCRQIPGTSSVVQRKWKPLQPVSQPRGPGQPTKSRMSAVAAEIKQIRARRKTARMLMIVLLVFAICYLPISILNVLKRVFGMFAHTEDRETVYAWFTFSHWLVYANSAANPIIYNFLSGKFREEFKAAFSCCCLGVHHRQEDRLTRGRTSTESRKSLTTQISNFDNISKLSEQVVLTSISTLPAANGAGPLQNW
Method in brief: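 Fluorescence peak on 3 nM orexin-A challenge, read by FLIPR and compared with vehicle, yields IC50 (geometric mean when repeated; may be normalized to an on-plate reference). Antagonists were added 120 min beforehand to fluo-4-loaded recombinant CHO cells expressing human OX1R or OX2R.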

Row | IC50 [1] [nM] | inhibition at 1 µM [1] [%] | Kb [1] [nM] | Ki [2] [nM] | IC50 [3] [nM] | inhibition at 1 µM [3] [%] | IC50 [4] [nM] | inhibition at 1 µM [4] [%] | Kb [4] [nM] | SMILES
1 | 5 | 98.8 | 1 | 370 | 690 | 55 | 220 | 72.3 | 31 | O=C(c1c(-c2ccc(F)cc2)nn2ccccc12)N1CCC[C@H]1Cn1ccc(-c2ccccc2)n1 [Example 44]
2 | 83 | 92 | 18 | 500 | 910 | 61 | 520 | 55 | 90 | O=C(c1c(-c2ccccc2F)nn2ccccc12)N1[C@H](Cn2ccc(-c3ccc(F)cn3)n2)C[C@@H]2C[C@@H]21 [Example 107]
3 | 5 | 98 | 1 | 630 | 1100 | 52 |  | 60.1 |  | O=C(c1c(-c2ccccc2)nn2ccccc12)N1CCCC[C@H]1COc1ccc(C(F)(F)F)cn1 [Example 24]
4 |  |  |  | 549 | 1010 | 56 |  | 98.5 | 10 | O=C(c1c(-c2ccccc2)nn2ccccc12)N1CCC[C@H]1Cn1ccc(-c2ccccc2)n1 [Example 13]
5 | 250 | 75 | 52 | 94 | 170 | 79 | 930 | 61 | 160 | O=C(c1c(-c2ccccc2)nc2ccc(F)cn12)N1CCC[C@H]1Cn1ccc(-c2ccc(F)cn2)n1 [Example 92]
6 | 160 | 93 | 33 | 77 | 140 | 86 | 160 | 76 | 28 | O=C(c1c(-c2ccccc2)nc2ccc(F)cn12)N1CCC[C@H]1Cn1cc(-c2ccccc2)cn1 [Example 75]
7 | 21 | 97.6 | 4 | 31 | 56 | 93 | 33 | 95.5 | 5 | O=C(c1c(-c2ccccc2)nc2cc(C(F)(F)F)ccn12)N1CCC[C@H]1Cn1ccc(-c2ccc(F)cc2)n1 [Example 53]
8 | 53 | 79.8 | 11 | 400 | 730 | 57 |  | 1.8 |  | C[C@@H]1CCCN(C(=O)c2c(-c3ccccc3)nc3ncccn23)[C@@H]1CNc1ccc(C(F)(F)F)cn1 [Example 34]
9 | 37 | 88 | 8 | 120 | 210 | 74 | 36 | 76 | 6 | O=C(c1c(-c2ccccc2)nc2cc(C(F)(F)F)ccn12)N1CCC[C@H]1Cn1ccc(-c2ccc(F)cn2)n1 [Example 94]
10 |  |  |  | 854 | 1560 | 52 |  |  |  | CCc1cnc(NC[C@@H]2[C@H](C)CCCN2C(=O)c2c(-c3ccccc3)nn3ccccc23)nc1 [Example 4]
11 | 20 | 95 | 4 | 49 | 90 | 91 | 371 | 85 | 64 | [2H]C1([2H])CC[C@@]([2H])(Cn2ccc(-c3ccc(F)cc3)n2)N1C(=O)c1c(-c2ccccc2)nc2ccc(F)cn12 [Example 177]
12 |  | 99 |  | 320 | 590 | 59 | 18 | 89 | 3 | O=C(c1c(-c2ccccc2)nc2cc(F)ccn12)N1CCC[C@H]1Cn1ccc(-c2ccc(F)cc2)n1 [Example 50]
13 | 9 | 102 | 2 | 25 | 47 | 92 | 52 | 79.3 | 7 | O=C(c1c(-c2ccccc2)nc2ccc(F)cn12)N1CCC[C@H]1Cn1ccc(-c2ccc(F)cc2)n1 [Example 49]
14 | 95 | 91 | 20 | 99 | 180 | 87 |  | 50 |  | O=C(c1c(-c2ccccc2F)nn2ccccc12)N1[C@H](Cn2ccc(-c3ccc(F)cc3)n2)C[C@@H]2C[C@@H]21 [Example 95]
15 | 9 | 100 | 2 | 100 | 190 | 76 | 23 | 86 | 4 | O=C(c1c(-c2ccccc2F)nn2ccccc12)N1CCC[C@H]1Cn1cc(-c2ccccc2)cn1 [Example 69]
16 |  |  |  | 1910 | 3500 | 33 |  |  |  | O=C(c1c(-c2ccccc2)nn2ccccc12)N1CCC[C@H]1COc1ccc(C(F)(F)F)cn1 [Example 20]
17 | 29 | 98.4 | 6 | 400 | 740 | 59 |  | 7.1 |  | C[C@@H]1CCCN(C(=O)c2c(-c3ccc(F)cc3)nn3ccccc23)[C@@H]1CNc1ccc(C(F)(F)F)cn1 [Example 40]
18 | 4 | 100 | 0.8 | 390 | 720 | 70 | 15 | 86 | 3 | O=C(c1nn2ccccc2c1-c1ccccc1)N1CCC[C@H]1Cn1cc(-c2ccc(F)cn2)cn1 [Example 112]
19 | 4 |  | 1 | 3340 | 6130 | 26 |  |  |  | O=C(c1c(-c2ccccc2)nn2ccccc12)N1CCC[C@H]1CNc1ccc(C(F)(F)F)cn1 [Example 10]
20 | 14 | 100 | 3 |  |  | 0 |  | 34 |  | O=C(c1nn2cccnc2c1-c1ccccn1)N1C(Cn2ccc(-c3ccc(F)cn3)n2)C[C@@H]2C[C@@H]21 (stereo partly drawn) [Example 187]
21 | 410 | 69 | 87 |  |  | 12 |  | 25 |  | O=C(c1c(-c2ncccn2)nn2ccccc12)N1CCC[C@H]1Cc1nc(-c2ccccn2)no1 [Example 155]
22 | 13 | 100 | 3 |  |  | 27 | 20 | 74 | 4 | O=C(c1c(-c2ccccc2F)nn2ccccc12)N1CCC[C@H]1Cn1ccc(-c2ccccn2)n1 [Example 67]
23 | 4 | 100 | 1 |  |  | 35 | 16 | 98 | 3 | O=C(c1c(-c2ccccn2)nn2ccccc12)N1CCC[C@H]1Cn1ccc(-c2ccccc2)n1 [Example 132]
24 |  |  |  | 799 | 1470 | 35 |  |  |  | C[C@@H]1CCCN(C(=O)c2c(-c3ccccc3)nn3c2COCC3)[C@@H]1CNc1ccc(C(F)(F)F)cn1 [Example 7]
